Consider one compound from patent US11419834B2, “Methods for treating diseases or infections caused by or associated with H. pylori using a halogenated salicylanilide” (Rhode Island Hospital, priority 2019, dated 2022).

Values after ≈ are worked out from the molar mass of the structure shown.

The subject of experiment [1] is IL-8 secretion from MKN-28 cells co-cultured with H. pylori. Briefly: IL-8 secretion, real-time RT-PCR. It is filed as cell-based. Particulars: 4×MIC, 1.0 μg/mL, 24 hour incubation, H. pylori infected MKN-28 cells. The protocol:
Real-Time (RT-PCR) was carried out to determine whether niclosamide has an inhibitory role in IL-8 secretion. MKN-28 cells were co-cultured with H. pylori (MOI=100) in the presence or absence of a test compound. At 24 hours, RNA was isolated from the infected host cells. cDNA was synthesized using the Verso cDNA (Invitrogen) synthesis kit according to manufacturer instructions. Quantitative real-time reactions were carried out in a Bio-Rad iTaq universal SYBR (Bio-Rad, Hercules, Calif. USA) one-step kit and a CFX98 real-time PCR cycler as described by Zheng et al. (Future Med. Chem. 2018, February; 10(3):283-296). The relative gene expression was calculated from Cq values using a ΔΔCq method.

For experiment [2], the system named is H. pylori bacteria (strain 60190). The experiment can be described thus: Multi-step mutation frequency (serial passage resistance study). It counts as cell-based, Helicobacter pylori. Here is the method: To determine whether H. pylori can develop resistance against niclosamide, bacterial cells were suspended in MHB with 10% FBS at OD600=0.06 in the presence of serially diluted niclosamide and incubated, as described in the antibiotic susceptibility assays sub-section. The standard antibiotics amoxicillin and clarithromycin were used as controls. From the highest drug concentration allowing visible growth at sub-MIC concentration, aliquots were diluted (1:40) into fresh medium. These were used to inoculate the second set of serial drug dilutions as described by Dalhoff et al. (Clin Infect Ds. 2001 Mar. 15; 32 Suppl, 1:S16-22). After a 3-day incubation, H. pylori bacteria (strain 60190) were passaged sequentially over 30 days and the OD was recorded.

Experiment [3] relates to H. pylori reference strain 60190 (ATCC 49503). Briefly: Broth microdilution assay, MIC. It is filed as cell-based. The note with it: Helicobacter pylori, ATCC49503, 72 h; H. pylori strain 60190; Müller-Hinton broth + 10% FBS, 3 days.
Experiment [4] relates to H. pylori bacteria (strain 60190). The experiment can be described thus: Time to kill assay. It counts as cell-based, Helicobacter pylori. The note with it: 4×MIC (1 μg/mL); 10^9 cells/mL. Here is the method: Niclosamide was therefore tested time to kill assays were used to confirm the killing properties of niclosamide against H. pylori. Agar grown H. pylori bacteria (strain 60190) were suspended in fresh Mueller Hinton Broth (MHB) with 10% Fetal bovine serum (FBS) to a density of 10^9 cells/mL and placed into 10 mL tubes (BD Biosciences). […] Aliquots were periodically drawn from the tubes, serially diluted and plated onto Brucella agar (BD Biosciences) supplemented with 10% FBS. CFUs were counted after a 3-day incubation and assays were carried out in duplicate. […] Of note, clarithromycin, a commonly prescribed antibiotic for H. pylori treatment, is also bacteriostatic (De Francesco et al. World journal of gastrointestinal pathophysiology 2, 35 (2011)).

For experiment [5], the system named is H. pylori strain 60190. Briefly: Minimum bactericidal concentration (plating from MIC assay). It counts as cell-based, Helicobacter pylori. Particulars: Helicobacter pylori; H. pylori strain 60190; read-out: MBC.
Experiment [6] relates to H. Pylori 51932. The experiment can be described thus: Broth microdilution assay, MIC. Particulars: Helicobacter pylori; strain H. Pylori 51932. It is filed as cell-based.
For experiment [7], the system named is H. pylori (strain 60190) adhered to AGS cells. The experiment can be described thus: Adhesion of H. pylori to AGS cells. The note with it: niclosamide 2×MIC, 20 hours, MOI=100. It counts as cell-based, Helicobacter pylori. The protocol: The AGS (Gastric adenocarcinoma cell lines) cell line was used to examine inhibition of adhesion and invasion of H. pylori (strain 60190) by niclosamide, as described by Schmitt et al. (Front Cell Infect Microbiol. 2013; 3:93). The AGS cells were grown in Dulbecco's Modified Eagle Medium (DMEM, ex. Gibco), supplemented with 10% fetal bovine serum (Gibco) and 1% penicillin/streptomycin (Gibco) and maintained at 37° C. in 5% C02. Then, 5×10^5 cells in antibiotic and serum-free DMEM were seeded in 6-well plates 24 hours prior to infection. H. pylori bacteria at a multiplicity of infection (MOI)=100 were added and allowed to adhere to the surface of the AGS cells. Planktonic bacteria were removed after 2 hours and DMEM with niclosamide (2×MIC) was then added to the wells containing the AGS. The mammalian cells were lysed by 0.1% saponin after 20 hours of incubation and the adhered bacteria were then serially diluted, plated in Brucella agar supplemented with 10% FBS, and incubated as described above. A control arm of DMSO and a comparator using amoxicillin at a concentration of 0.1 μg/mL (10×MIC) was also assessed. […]

Experiment [8] concerns H. pylori bacteria. The experiment can be described thus: Scanning electron microscopy of morphology. It is filed as cell-based, Helicobacter pylori. Particulars: 2 hours.
Experiment [9] deals with H. Pylori 43504. Briefly: Broth microdilution assay, MIC. It is filed as cell-based. Particulars: Helicobacter pylori; strain H. Pylori 43504.

`O=C(Nc1ccc([N+](=O)[O-])cc1Cl)c1cc(Cl)ccc1O` [Niclosamide, niclosamide]: the “effect on IL-8 secretion” value in experiment [1] is “inhibited IL-8 secretion”. In addition, the “development of H. pylori resistance” value in experiment [2] (30 day resistance studies) was “no H. pylori resistance to niclosamide developed”. For the same compound, the “change in MIC through at least 10 passages” value in experiment [2] (at least 10 passages) is on record as “remained constant”. In addition, the “increase in MIC during continuous passage” value in experiment [2] (passaged sequentially over 30 days) is recorded as “remained unchanged”. The MIC in experiment [3] amounted to 0.25 µg/mL; in experiment [6], 0.5 µg/mL (≈ 1.53 µM); in experiment [9], 0.125 µg/mL (≈ 0.382 µM). Besides, the “killing kinetics (bacteriostatic or bactericidal)” value in [4] was “bacteriostatic”. Besides, the MBC in [5] came to 0.5 µg/mL (≈ 1.53 µM). Moreover, in [7], the “reduction of CFU/mL counts of adhered bacteria” value turned out to be 3 log10. Besides, the “morphology (helical shape) by SEM” value in experiment [8] (1× MIC) is on record as “shortened”. For the same compound, the “morphology by SEM” value in [8] (4× and 8× MIC) is “Cocco-bacillary”. The “effect on bacterial flagella by SEM” value in experiment [8] (niclosamide treatment) was “flagellar deformation”.
